The record followed here is ChEMBL document CHEMBL3608214, “Optimization of Novel Antagonists to the Neurokinin-3 Receptor for the Treatment of Sex-Hormone Disorders (Part II)” (ACS Med Chem Lett, 2015).

A word on the logD: it is the decadic logarithm of the distribution of all forms, ionised or not, between an organic phase and buffer at a given pH. By Ki is commonly meant a dissociation constant, usually derived from enzyme kinetics or from competition with a known ligand. For orientation: fraction unbound means the share of the substance not bound to proteins or other matrix. The IC50 is the midpoint of a concentration-inhibition curve. In general, Vd refers to a proportionality between amount in the body and measured concentration, not a real space. A word on the half-life: it is the time in which the quantity being followed falls by half.

Series [1] in a line: Distribution coefficient, log D of the compound at pH 7.4. In kind it is physicochemical. The following applies: octanol/water.
Series [2] in a line: Binding affinity to monkey NK3R.
For series [3], the system named is Rattus norvegicus. The series is described as follows: Inhibition of luteinizing hormone release in orally dosed rat. The following applies: po, read-out: MED.
The nature of series [4]: Unbound fraction in rat brain at 1 mg/kg after 60 mins.
Series [5] has as its target Voltage-gated inwardly rectifying potassium channel KCNH2 (Homo sapiens, UniProt Q12809).
A short description of series [6]: Unbound fraction in monkey plasma at 5 mg/kg, po after 90 mins. To be noted: rhesus monkey.
Series [7] can be described thus: Volume of distribution at steady state in monkey at 10 mg/kg, iv. To be noted: rhesus monkey, in vivo.
The subject of series [8] is Cynomolgus monkey. The series is described as follows: Inhibition of luteinizing hormone release in orally dosed castrated cynomolgus monkey. The following applies: Macaca fascicularis, po, read-out: MED.
Series [9] can be described thus: Ratio of unbound drug concentration in brain to plasma of rat at 1 mg/kg after 60 mins.
Series [10] has as its target Cytochrome P450 2C9 (Homo sapiens, UniProt P11712).
Description: Inhibition of CYP2C9 (unknown origin)
The target of series [11] is T1, Neuromedin-K receptor (Homo sapiens, UniProt P29371).
T1 sequence (P29371 whole entry): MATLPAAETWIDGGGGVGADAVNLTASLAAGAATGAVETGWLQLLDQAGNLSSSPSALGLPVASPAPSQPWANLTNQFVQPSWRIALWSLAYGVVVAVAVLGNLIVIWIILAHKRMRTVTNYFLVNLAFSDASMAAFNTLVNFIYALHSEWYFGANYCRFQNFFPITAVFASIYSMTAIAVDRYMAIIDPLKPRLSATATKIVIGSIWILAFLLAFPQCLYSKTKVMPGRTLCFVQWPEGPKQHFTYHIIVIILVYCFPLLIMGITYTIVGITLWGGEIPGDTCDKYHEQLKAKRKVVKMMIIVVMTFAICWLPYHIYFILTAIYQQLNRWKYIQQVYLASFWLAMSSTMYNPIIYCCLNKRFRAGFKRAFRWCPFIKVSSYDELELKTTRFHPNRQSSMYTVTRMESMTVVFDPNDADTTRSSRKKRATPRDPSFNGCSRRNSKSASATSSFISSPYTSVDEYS

Series [12] has as its target Cytochrome P450 3A4 (Homo sapiens, UniProt P08684).
Description: Inhibition of CYP3A4 (unknown origin)
For series [13], the target named is Cytochrome P450 2D6 (Homo sapiens, UniProt P10635).
Description: Inhibition of CYP2D6 (unknown origin)
Series [14] concerns the target T2, Cytochrome P450 1A2 (Homo sapiens, UniProt P05177).
T2 sequence (P05177 whole entry): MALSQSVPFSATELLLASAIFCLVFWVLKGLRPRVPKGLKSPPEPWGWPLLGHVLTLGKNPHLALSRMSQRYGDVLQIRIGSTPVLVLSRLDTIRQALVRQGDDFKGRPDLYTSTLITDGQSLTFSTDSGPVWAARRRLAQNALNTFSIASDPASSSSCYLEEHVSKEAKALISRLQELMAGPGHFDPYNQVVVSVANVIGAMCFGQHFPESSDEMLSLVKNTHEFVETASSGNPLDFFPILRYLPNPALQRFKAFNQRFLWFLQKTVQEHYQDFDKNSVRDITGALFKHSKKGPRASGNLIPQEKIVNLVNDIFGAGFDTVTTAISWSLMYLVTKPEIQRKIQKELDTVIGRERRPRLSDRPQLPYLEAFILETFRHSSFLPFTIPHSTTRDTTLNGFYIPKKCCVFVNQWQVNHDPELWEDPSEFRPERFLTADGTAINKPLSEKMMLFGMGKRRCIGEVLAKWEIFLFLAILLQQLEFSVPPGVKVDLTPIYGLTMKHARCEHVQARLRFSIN
Description: Inhibition of CYP1A2 (unknown origin)

Series [15] concerns the target Cytochrome P450 2C19 (Homo sapiens, UniProt P33261).
Description: Inhibition of CYP2C19 (unknown origin)
The target in series [16] is T1, Neuromedin-K receptor. The source holds these as a separate data set.
The target of series [17] is T3, Neuromedin-K receptor (Rattus norvegicus, UniProt P16177).
T3 sequence (P16177 whole entry): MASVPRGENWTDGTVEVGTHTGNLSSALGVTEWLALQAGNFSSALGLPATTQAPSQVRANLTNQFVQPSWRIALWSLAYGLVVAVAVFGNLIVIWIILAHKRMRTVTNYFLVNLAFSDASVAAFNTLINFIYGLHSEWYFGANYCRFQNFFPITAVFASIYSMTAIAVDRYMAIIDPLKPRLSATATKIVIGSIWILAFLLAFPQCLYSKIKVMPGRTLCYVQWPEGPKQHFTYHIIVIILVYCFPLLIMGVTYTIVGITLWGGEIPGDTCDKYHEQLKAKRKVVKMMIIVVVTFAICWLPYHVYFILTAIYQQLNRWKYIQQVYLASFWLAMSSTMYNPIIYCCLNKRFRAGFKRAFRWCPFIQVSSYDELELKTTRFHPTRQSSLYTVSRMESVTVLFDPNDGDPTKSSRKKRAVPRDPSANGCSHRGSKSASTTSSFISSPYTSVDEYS
Nature of the series: Binding affinity to rat NK3R.

Series [18] in a line: Volume of distribution at steady state in rat at 1 mg/kg, iv. To be noted: in vivo.
Series [19] in a line: Half life in rat at 1 mg/kg, iv. The following applies: in vivo.

The structures appear in SMILES notation.

Cytochrome P450 2C19, sequence (P33261 whole entry): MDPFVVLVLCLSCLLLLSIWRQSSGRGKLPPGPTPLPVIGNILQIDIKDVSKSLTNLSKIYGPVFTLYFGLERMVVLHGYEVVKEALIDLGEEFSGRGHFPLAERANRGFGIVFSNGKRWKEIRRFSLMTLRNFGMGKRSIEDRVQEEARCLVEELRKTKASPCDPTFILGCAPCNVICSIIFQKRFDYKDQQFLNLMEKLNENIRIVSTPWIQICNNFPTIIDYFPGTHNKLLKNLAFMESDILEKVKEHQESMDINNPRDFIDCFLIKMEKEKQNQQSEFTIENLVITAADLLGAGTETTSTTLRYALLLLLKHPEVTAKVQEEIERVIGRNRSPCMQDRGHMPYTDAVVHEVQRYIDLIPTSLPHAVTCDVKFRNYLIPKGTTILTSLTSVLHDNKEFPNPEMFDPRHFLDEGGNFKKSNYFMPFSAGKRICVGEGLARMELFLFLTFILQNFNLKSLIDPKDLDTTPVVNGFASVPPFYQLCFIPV
Cytochrome P450 3A4, sequence (P08684 whole entry): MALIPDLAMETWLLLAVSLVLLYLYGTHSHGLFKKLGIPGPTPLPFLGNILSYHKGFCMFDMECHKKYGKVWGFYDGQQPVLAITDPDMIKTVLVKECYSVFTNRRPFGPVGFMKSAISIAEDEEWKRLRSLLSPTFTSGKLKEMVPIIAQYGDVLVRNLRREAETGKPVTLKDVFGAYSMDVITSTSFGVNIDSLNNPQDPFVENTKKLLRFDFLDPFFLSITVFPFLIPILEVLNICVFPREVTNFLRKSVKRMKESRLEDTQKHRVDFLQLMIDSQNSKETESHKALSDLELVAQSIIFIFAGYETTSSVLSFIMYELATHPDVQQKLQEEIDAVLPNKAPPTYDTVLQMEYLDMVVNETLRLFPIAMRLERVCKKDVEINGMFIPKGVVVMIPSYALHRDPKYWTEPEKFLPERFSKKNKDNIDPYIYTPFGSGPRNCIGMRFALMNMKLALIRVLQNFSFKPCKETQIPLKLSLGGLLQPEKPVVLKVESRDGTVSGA
Cytochrome P450 2D6, sequence (P10635 whole entry): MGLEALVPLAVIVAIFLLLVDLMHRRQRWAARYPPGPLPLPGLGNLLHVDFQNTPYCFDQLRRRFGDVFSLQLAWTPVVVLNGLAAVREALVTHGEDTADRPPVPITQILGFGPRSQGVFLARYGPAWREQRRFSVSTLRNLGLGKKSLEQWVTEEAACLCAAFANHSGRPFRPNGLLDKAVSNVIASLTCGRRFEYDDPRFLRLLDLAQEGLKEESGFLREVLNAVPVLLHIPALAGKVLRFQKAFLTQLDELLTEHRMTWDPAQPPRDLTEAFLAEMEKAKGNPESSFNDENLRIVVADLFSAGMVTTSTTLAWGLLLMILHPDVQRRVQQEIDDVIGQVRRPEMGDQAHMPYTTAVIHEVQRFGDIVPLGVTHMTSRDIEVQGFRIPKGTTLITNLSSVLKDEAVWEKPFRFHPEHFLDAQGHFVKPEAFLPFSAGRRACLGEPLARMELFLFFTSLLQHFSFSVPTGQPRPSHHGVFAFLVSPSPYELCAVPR
Cytochrome P450 2C9, sequence (P11712 whole entry): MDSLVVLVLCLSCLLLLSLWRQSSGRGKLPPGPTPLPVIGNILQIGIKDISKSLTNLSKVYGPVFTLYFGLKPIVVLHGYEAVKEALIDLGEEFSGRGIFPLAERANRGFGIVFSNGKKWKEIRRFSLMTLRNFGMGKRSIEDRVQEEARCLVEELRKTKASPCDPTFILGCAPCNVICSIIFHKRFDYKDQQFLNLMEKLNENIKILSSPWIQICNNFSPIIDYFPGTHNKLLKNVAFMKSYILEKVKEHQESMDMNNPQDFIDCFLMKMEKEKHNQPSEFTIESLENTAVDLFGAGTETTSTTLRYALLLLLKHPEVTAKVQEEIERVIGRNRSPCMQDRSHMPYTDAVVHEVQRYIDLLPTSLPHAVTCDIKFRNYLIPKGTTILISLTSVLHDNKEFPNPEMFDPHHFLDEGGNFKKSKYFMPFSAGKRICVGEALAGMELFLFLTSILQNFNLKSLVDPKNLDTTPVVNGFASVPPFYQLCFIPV
Voltage-gated inwardly rectifying potassium channel KCNH2, sequence (Q12809 whole entry): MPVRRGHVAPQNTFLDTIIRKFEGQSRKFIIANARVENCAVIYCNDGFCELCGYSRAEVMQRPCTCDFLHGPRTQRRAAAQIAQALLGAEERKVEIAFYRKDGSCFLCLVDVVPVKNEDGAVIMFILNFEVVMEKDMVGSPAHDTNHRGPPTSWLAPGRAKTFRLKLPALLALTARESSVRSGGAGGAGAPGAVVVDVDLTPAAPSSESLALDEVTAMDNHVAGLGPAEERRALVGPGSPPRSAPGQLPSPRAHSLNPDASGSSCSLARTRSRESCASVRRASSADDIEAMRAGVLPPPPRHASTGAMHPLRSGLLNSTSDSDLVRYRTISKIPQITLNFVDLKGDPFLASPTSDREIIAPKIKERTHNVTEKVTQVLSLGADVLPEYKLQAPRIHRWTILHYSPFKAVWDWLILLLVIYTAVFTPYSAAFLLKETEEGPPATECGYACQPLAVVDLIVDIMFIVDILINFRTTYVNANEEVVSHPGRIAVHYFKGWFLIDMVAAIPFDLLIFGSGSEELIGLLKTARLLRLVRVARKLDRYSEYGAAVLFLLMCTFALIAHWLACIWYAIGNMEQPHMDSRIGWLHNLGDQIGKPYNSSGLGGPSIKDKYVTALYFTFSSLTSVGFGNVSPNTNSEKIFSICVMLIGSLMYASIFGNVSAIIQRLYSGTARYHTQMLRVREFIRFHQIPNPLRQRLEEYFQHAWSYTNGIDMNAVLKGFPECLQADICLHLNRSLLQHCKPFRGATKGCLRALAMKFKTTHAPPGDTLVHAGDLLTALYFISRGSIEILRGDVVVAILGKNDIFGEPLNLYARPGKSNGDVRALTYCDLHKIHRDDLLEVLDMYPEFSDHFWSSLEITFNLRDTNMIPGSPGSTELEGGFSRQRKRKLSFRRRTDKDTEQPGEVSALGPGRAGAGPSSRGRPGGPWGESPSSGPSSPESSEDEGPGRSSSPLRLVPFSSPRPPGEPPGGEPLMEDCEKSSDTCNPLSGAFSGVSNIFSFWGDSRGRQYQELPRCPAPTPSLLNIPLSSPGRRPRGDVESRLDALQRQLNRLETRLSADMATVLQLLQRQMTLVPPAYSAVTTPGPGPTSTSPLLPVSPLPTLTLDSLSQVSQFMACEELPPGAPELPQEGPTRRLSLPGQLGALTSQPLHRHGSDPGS

On to `C[C@@H]1c2nnc(-c3csc(-c4ccc(F)cc4F)n3)n2CCN1C(=O)c1ccc(-c2cccs2)cc1`, for which the logD in series [1] is 5.

In the case of `Cc1nc(-c2nnc3n2CCN(C(=O)c2ccc(-c4cccs4)cc2)[C@@H]3C)cs1`, in series [2], affinity was put at a Ki of 20 nM. Moreover, the minimal effective dose amounted to 60 mg/kg in series [3] and 20 mg/kg in [8]. The molecule further gave a fraction unbound at 1 h in series [4] of 0.028. In [5], this molecule gave an IC50 of 24000 nM. In [1] (read-out: logD), the logD turned out to be 3.1. The free fraction (fraction unbound) at […] in [6] turned out to be 0.043. Also, the Vd in [7] was found to be 1.52 L/kg. Moreover, the Kp uu at 1 h in series [9] was 0.14.

In series [1], `Cc1nnc(-c2nnc3n2CCN(C(=O)c2ccc(F)cc2)[C@@H]3C)s1` showed a logD of 0.8.

Regarding `Cc1noc(-c2nnc3n2CCN(C(=O)c2ccc(F)cc2)[C@@H]3C)n1`, the logD in [1] is 0.7. The IC50 in [10] was 42000 nM; in series [12], greater than 100000 nM; in series [13], greater than 100000 nM; in series [14], 86000 nM; in series [15], 34000 nM. Also, in series [11], the Ki was 126 nM.

In series [16], `CC(C)c1noc(-c2nnc3n2CCN(C(=O)c2ccc(F)cc2)[C@@H]3C)n1` showed an IC50 of 39.8 nM. This molecule also displayed a logD in series [1] of 1.7. Further, the Ki in series [11] is 25.1 nM.

Turning to `Cc1nsc(-c2nnc3n2CCN(C(=O)c2ccc(F)cc2)C3)n1`, the IC50 in [16] is 158 nM. Also, the minimal effective dose in [3] is 30 mg/kg. The Ki in series [11] was 100 nM; in [17], 2030 nM.

In series [1], `C[C@@H]1c2nnc(-c3ncns3)n2CCN1C(=O)c1ccc(F)cc1` returned a logD of 1.1.

`Cc1nsc(-c2nnc3n2CCN(C(=O)c2ccc(F)cc2)C3(C)C)n1` showed a logD in series [1] of 2. In addition, the IC50 in [10] was 12000 nM; in series [12] it was greater than 100000 nM; in series [13] it was greater than 100000 nM; in series [14] it was 51000 nM; in series [15] it was 4000 nM.

Regarding `Cc1nsc(-c2nnc3n2CCN(C(=O)c2ccc(Cl)cc2)[C@@H]3C)n1`, half-maximal inhibition in series [16] (IC50) required 31.6 nM. The Ki in series [11] is 20 nM.

`C[C@@H]1c2nnc(-c3nc(C(F)(F)F)ns3)n2CCN1C(=O)c1ccc(F)cc1`: the minimal effective dose in [3] is 10 mg/kg. In series [17], this molecule showed a Ki of 85 nM.

`Cc1nsc(-c2nnc3n2CCN(C(=O)c2ccccc2)[C@@H]3C)n1` gave an IC50 in series [16] of 63.1 nM. In addition, the minimal effective dose in [3] came out at 30 mg/kg. The Ki in series [11] was 50.1 nM; in series [17] it was 573 nM.

The molecule `Cc1nsc(-c2nnc3n2CCN(C(=O)c2ccc(F)cc2)[C@@H]3CCO)n1` gave an IC50 in series [16] of 79.4 nM. In addition, the Ki was 31.6 nM in series [11] and 244 nM in series [17].

As for `Cc1nsc(-c2nnc3n2CCN(C(=O)c2ccc(F)cc2)[C@@H]3C)n1` [FEZOLINETANT], the IC50 in series [16] was 20 nM. Further, the Ki is 25.1 nM in series [11] and 219 nM in [17]. The Vd in series [18] was 0.6 L/kg. In addition, the half-life in [19] amounted to 4.65 h.
